US10968218B2, “Tetrahydropyridopyrimidines for the treatment and prophylaxis of hepatitis B virus infection” (Hoffmann-La Roche Inc., priority 2016, dated 2021)

Test system: HBsAg
Assay: HBsAg assay (CLIA of secreted HBsAg in HepG2.2.15 culture supernatant)
Type: cell-based, HBV
Settings: Hepatitis B virus
Protocol: HepG2.2.15 cells (Acs et al. Proc Natl Acad Sci USA, 84, (1987), 4641-4), a constitutively HBV-expressing cell line were cultured in DMEM+Glutamax-I medium (Invitrogen, Carlsbad, Calif., USA), supplemented with 10% fetal bovine serum (Invitrogen) and G418 (Invitrogen) at a final concentration of 200 mg/L and maintained in 5% CO2 at 37° C.
HepG2.2.15 cells were seeded in duplicate into white, 96-well plates at 1.5×10^4 cells/well. The cells were treated with a three-fold serial dilution series of the compounds in DMSO. The final DMSO concentration in all wells was 1% and DMSO was used as no drug control.
The HBsAg chemiluminescence immunoassay (CLIA) kit (Autobio Diagnostics Co., Zhengzhou, China, Catalog number: CL0310-2) was used to measure the levels of secreted HBV antigens semi-quantitatively. For the detection 50 μL/well culture supernatant was used and HBsAg was quantified using HBsAg chemiluminescence immunoassay (CLIA) kit (Autobio Diagnostics Co., Zhengzhou, China, Catalog number: CL0310-2), 50 μL of the supernatant was transferred to the CLIA assay plate and 50 μL of enzyme conjugate reagent was added into each well. The plates were sealed and gently agitated for 1 hour at room temperature. The supernatant-enzyme-mixture was discarded and wells were washed 6 times with 300 μL of PBS. The residual liquid was removed by plating the CLIA plate right side down on absorbent tissue paper. 25 μL of substrates A and B were added to each well. Luminance was measured using a luminometer (Mithras LB 940 Multimode Microplate Reader) after 10 minutes incubation. Dose-response curves were generated and the IC50 value was extrapolated by using the E-WorkBook Suite (ID Business Solutions Ltd., Guildford, UK). The IC50 was defined as the compound concentration at which HBsAg secretion was reduced by 50% compared to the no drug control.
The compounds according to formula I were tested for their capacity to inhibit HBsAg as described herein.

| SMILES | IC50 [nM] |
| --- | --- |
| COc1cc(N2CCc3nc(-c4nccn4C)ncc3C2)cc(F)c1F [Example 1, 6-(3,4-Difluoro-5-methoxy-phenyl)-2-(1-methylimidazol-2-yl)-7,8-dihydro-5H-pyrido[4,3-d]pyrimidine] | 1160 |
| CC1c2cnc(-c3cscn3)nc2CCN1c1cc(N2CCNC(=O)C2)cc(F)n1 (centres unmarked) [Example 29, 4-[2-fluoro-6-(5-methyl-2-thiazol-4-yl-7,8-dihydro-5H-pyrido[4,3-d]pyrimidin-6-yl)-4-pyridyl]piperazin-2-one] | 34 |
| COc1cc(F)nc(N2CCc3nc(-c4ncsc4C)ncc3C2C)c1 (centres unmarked) [Example 42, 4-[6-(6-Fluoro-4-methoxy-2-pyridyl)-5-methyl-7,8-dihydro-5H-pyrido[4,3-d]pyrimidin-2-yl]-5-methyl-thiazole] | 282 |
| COc1cc(F)nc(N2CCc3nc(-n4ccnn4)ncc3C2C)c1 (centres unmarked) [Example 2, 6-(6-Fluoro-4-methoxy-2-pyridyl)-5-methyl-2-(triazol-1-yl)-7,8-dihydro-5H-pyrido[4,3-d]pyrimidine] | 22900 |
| COc1cc(F)nc(N2CCc3nc(-c4nccs4)ncc3C2C)c1 (centres unmarked) [Example 6, 2-[6-(6-Fluoro-4-methoxy-2-pyridyl)-5-methyl-7,8-dihydro-5H-pyrido[4,3-d]pyrimidin-2-yl]thiazole] | 118 |
| CC1c2cnc(-c3cscn3)nc2CCN1c1cc(OCC(F)F)cc(F)n1 (centres unmarked) [Example 35, 4-[6-[4-(2,2-difluoroethoxy)-6-fluoro-2-pyridyl]-5-methyl-7,8-dihydro-5H-pyrido[4,3-d]pyrimidin-2-yl]thiazole] | 39 |
| CC1c2cnc(-c3cscn3)nc2CCN1c1cc(OCCCN2CCCC2=O)cc(F)n1 (centres unmarked) [Example 41, 1-[3-[[2-fluoro-6-(5-methyl-2-thiazol-4-yl-7,8-dihydro-5H-pyrido[4,3-d]pyrimidin-6-yl)-4-pyridyl]oxy]propyl]pyrrolidin-2-one] | 102 |
| CC1c2cnc(-c3cscn3)nc2CCN1c1cc(N2CCOCC2)cc(F)n1 (centres unmarked) [Example 13, 4-[2-fluoro-6-(5-methyl-2-thiazol-4-yl-7,8-dihydro-5H-pyrido[4,3-d]pyrimidin-6-yl)-4-pyridyl]morpholine] | 33 |
| CC1c2cnc(-c3cscn3)nc2CCN1c1cc(F)nc(OCCCN2CCCC2=O)c1 (centres unmarked) [Example 40, 1-[3-[[6-fluoro-4-(5-methyl-2-thiazol-4-yl-7,8-dihydro-5H-pyrido[4,3-d]pyrimidin-6-yl)-2-pyridyl]oxy]propyl]pyrrolidin-2-one] | 222 |
| CC1c2cnc(-c3cscn3)nc2CCN1c1cc(N2CCN(S(C)(=O)=O)CC2)cc(F)n1 (centres unmarked) [Example 21, 4-[6-[6-fluoro-4-(4-methylsulfonylpiperazin-1-yl)-2-pyridyl]-5-methyl-7,8-dihydro-5H-pyrido[4,3-d]pyrimidin-2-yl]thiazole] | 16 |
| COc1cc(F)nc(N2CCc3nc(-c4csc(C)n4)ncc3C2C)c1 (centres unmarked) [Example 15, 4-[6-(6-fluoro-4-methoxy-2-pyridyl)-5-methyl-7,8-dihydro-5H-pyrido[4,3-d]pyrimidin-2-yl]-2-methyl-thiazole] | 1520 |
| CC1c2cnc(-c3cscn3)nc2CCN1c1cc(F)nc(N2CCNC(=O)C2)c1 (centres unmarked) [Example 28, 4-[6-fluoro-4-(5-methyl-2-thiazol-4-yl-7,8-dihydro-5H-pyrido[4,3-d]pyrimidin-6-yl)-2-pyridyl]piperazin-2-one] | 42 |
| CC1c2cnc(-c3cscn3)nc2CCN1c1cc(OCC2CC2)cc(F)n1 (centres unmarked) [Example 32, 4-[6-[4-(cyclopropylmethoxy)-6-fluoro-2-pyridyl]-5-methyl-7,8-dihydro-5H-pyrido[4,3-d]pyrimidin-2-yl]thiazole] | 39 |
| COc1cc(F)nc(N2CCc3nc(-n4nccn4)ncc3C2C)c1 (centres unmarked) [Example 3, 6-(6-Fluoro-4-methoxy-2-pyridyl)-5-methyl-2-(triazol-2-yl)-7,8-dihydro-5H-pyrido[4,3-d]pyrimidine] | 666 |
| COc1cc(F)nc(N2CCc3nc(-n4cccn4)ncc3C2C)c1 (centres unmarked) [Example 9, 6-(6-Fluoro-4-methoxy-2-pyridyl)-5-methyl-2-pyrazol-1-yl-7,8-dihydro-5H-pyrido[4,3-d]pyrimidine] | 95 |
| CC1c2cnc(-c3cscn3)nc2CCN1c1cc(F)nc(OCC2CCOC2)c1 (centres unmarked) [Example 37, 4-[6-[2-fluoro-6-(tetrahydrofuran-3-ylmethoxy)-4-pyridyl]-5-methyl-7,8-dihydro-5H-pyrido[4,3-d]pyrimidin-2-yl]thiazole] | 70 |

| SMILES | IC50 [nM] |
| --- | --- |
| CC1c2cnc(-c3cscn3)nc2CCN1c1cc(F)cc(N2CCN(S(C)(=O)=O)CC2)n1 (centres unmarked) [Example 22, 4-[6-[4-fluoro-6-(4-methylsulfonylpiperazin-1-yl)-2-pyridyl]-5-methyl-7,8-dihydro-5H-pyrido[4,3-d]pyrimidin-2-yl]thiazole] | 66 |
| CC1c2cnc(-c3cscn3)nc2CCN1c1cc(F)cc(N2CCCC2)n1 (centres unmarked) [Example 19, 4-[6-(4-fluoro-6-pyrrolidin-1-yl-2-pyridyl)-5-methyl-7,8-dihydro-5H-pyrido[4,3-d]pyrimidin-2-yl]thiazole] | 175 |
| COc1cc(F)nc(N2CCc3nc(-c4ncco4)ncc3C2C)c1 (centres unmarked) [Example 4, 2-[6-(6-Fluoro-4-methoxy-2-pyridyl)-5-methyl-7,8-dihydro-5H-pyrido[4,3-d]pyrimidin-2-yl]oxazole] | 316 |
| COC1CCN(c2cc(F)cc(N3CCc4nc(-c5cscn5)ncc4C3C)n2)C1 (centres unmarked) [Example 25, 4-[6-[4-fluoro-6-(3-methoxypyrrolidin-1-yl)-2-pyridyl]-5-methyl-7,8-dihydro-5H-pyrido[4,3-d]pyrimidin-2-yl]thiazole] | 60 |
| CC1c2cnc(-c3cscn3)nc2CCN1c1cc(F)cc(N2CCNC(=O)C2)n1 (centres unmarked) [Example 30, 4-[4-fluoro-6-(5-methyl-2-thiazol-4-yl-7,8-dihydro-5H-pyrido[4,3-d]pyrimidin-6-yl)-2-pyridyl]piperazin-2-one] | 21 |
| CC1c2cnc(-c3cscn3)nc2CCN1c1cc(N2CCCC2)cc(F)n1 (centres unmarked) [Example 18, 4-[6-(6-fluoro-4-pyrrolidin-1-yl-2-pyridyl)-5-methyl-7,8-dihydro-5H-pyrido[4,3-d]pyrimidin-2-yl]thiazole] | 16 |
| CC1c2cnc(-c3cscn3)nc2CCN1c1cc(F)cc(OCC2CC2)n1 (centres unmarked) [Example 33, 4-[6-[6-(cyclopropylmethoxy)-4-fluoro-2-pyridyl]-5-methyl-7,8-dihydro-5H-pyrido[4,3-d]pyrimidin-2-yl]thiazole] | 212 |
| COc1cc(F)nc(N2CCc3nc(-c4cn(Cc5ccccc5)cn4)ncc3C2C)c1 (centres unmarked) [Example 10, 2-(1-Benzylimidazol-4-yl)-6-(6-fluoro-4-methoxy-2-pyridyl)-5-methyl-7,8-dihydro-5H-pyrido[4,3-d]pyrimidine] | 421 |
| COc1cc(F)nc(N2CCc3nc(-c4cc[nH]n4)ncc3C2C)c1 (centres unmarked) [Example 27, 6-(6-Fluoro-4-methoxy-2-pyridyl)-5-methyl-2-(1H-pyrazol-3-yl)-7,8-dihydro-5H-pyrido[4,3-d]pyrimidine] | 230 |
| COc1cc(F)nc(N2CCc3nc(-c4cnc(C)s4)ncc3C2C)c1 (centres unmarked) [Example 16, 5-[6-(6-fluoro-4-methoxy-2-pyridyl)-5-methyl-7,8-dihydro-5H-pyrido[4,3-d]pyrimidin-2-yl]-2-methyl-thiazole] | 25800 |
| CC1c2cnc(-c3cscn3)nc2CCN1c1cc(N(C)C)cc(F)n1 (centres unmarked) [Example 11, 2-Fluoro-N,N-dimethyl-6-(5-methyl-2-thiazol-4-yl-7,8-dihydro-5H-pyrido[4,3-d]pyrimidin-6-yl)pyridin-4-amine] | 26 |
| CC1c2cnc(-c3cscn3)nc2CCN1c1cc(OCC2CCOC2)cc(F)n1 (centres unmarked) [Example 38, 4-[6-[6-fluoro-4-(tetrahydrofuran-3-ylmethoxy)-2-pyridyl]-5-methyl-7,8-dihydro-5H-pyrido[4,3-d]pyrimidin-2-yl]thiazole] | 20 |
| CC1c2cnc(-c3cscn3)nc2CCN1c1cc(F)cc(OCC2CCOC2)n1 (centres unmarked) [Example 39, 4-[6-[4-fluoro-6-(tetrahydrofuran-3-ylmethoxy)-2-pyridyl]-5-methyl-7,8-dihydro-5H-pyrido[4,3-d]pyrimidin-2-yl]thiazole] | 139 |
| COC1CCN(c2cc(F)nc(N3CCc4nc(-c5cscn5)ncc4C3C)c2)C1 (centres unmarked) [Example 24, 4-[6-[6-fluoro-4-(3-methoxypyrrolidin-1-yl)-2-pyridyl]-5-methyl-7,8-dihydro-5H-pyrido[4,3-d]pyrimidin-2-yl]thiazole] | 23 |
| COC1CCN(c2cc(N3CCc4nc(-c5cscn5)ncc4C3C)cc(F)n2)C1 (centres unmarked) [Example 23, 4-[6-[2-fluoro-6-(3-methoxypyrrolidin-1-yl)-4-pyridyl]-5-methyl-7,8-dihydro-5H-pyrido[4,3-d]pyrimidin-2-yl]thiazole] | 35 |
| CC1c2cnc(-c3cscn3)nc2CCN1c1cc(F)cc(N2CCOCC2)n1 (centres unmarked) [Example 14, 4-[4-fluoro-6-(5-methyl-2-thiazol-4-yl-7,8-dihydro-5H-pyrido[4,3-d]pyrimidin-6-yl)-2-pyridyl]morpholine] | 74 |
